Data as given in article PMC7111291 (European Journal of Medicinal Chemistry, 2020).
Read-outs that look alike come from different tables or passages of the source.

Legend:
[1] = tested on: VSVG/HIV-1RT-Y188L; type: cell-based; conditions: for EC50: read-out: EC50±SD
[2] = tested on: wild type HIV-1 (VSVG/HIV-1wt); assay: microbe, parasite or virus in culture; type: cell-based; conditions: for EC50: read-out: EC50±SD
[3] = molecular target: HIV-1 RT Ribonuclease H (Human immunodeficiency virus type 1 group M subtype B, UniProt P04585); assay: Ribonuclease H activity detection; type: biochemical
[4] = tested on: VSVG/HIV-1RT-K103N; type: cell-based
[5] = tested on: VSVG/HIV-1RT-K103N,G190A; type: cell-based
[6] = tested on: VSVG/HIV-1RT-K103N,V108I; type: cell-based
[7] = tested on: VSVG/HIV-1RT-Y181C; type: cell-based
[8] = tested on: HEK 293T cells; type: cell-based, human; conditions: read-out: CC50±SD, 48 h
[9] = Human immunodeficiency virus 1, HEK-293T

**Q.** Which results are given for Cc1ccnc2c1NC(=O)c1cccnc1N2C1CC1 [NVP, nevirapine, reference compound]?
**A.** EC50 [1]: > 100000 nM; EC50 [2, 9]: 30 ± 3 nM; EC50 [2]: 20 nM

**Q.** For CCCOn1cc(CC(=O)Nc2ccncc2Cl)c2ccccc21 [Compound 10f, N-(3-Chloropyridin-4-yl)-2-(1-propoxy-1H-indol-3-yl)acetamide], which IC50 [3] is on record?
**A.** > 100000 nM

**Q.** And the EC50 [2]?
**A.** 70 nM

**Q.** What does the source list for O=C1Nc2ccc(Cl)cc2[C@@](C#CC2CC2)(C(F)(F)F)O1 [EFV, efavirenz]?
**A.** Mean change (fold) in EC50 compared to wild type [4]: 0.03 ± 0.003 (27.0) fold; Mean change (fold) in EC50 compared to wild type [5]: 0.18 ± 0.01 (183.0) fold; Mean change (fold) in EC50 compared to wild type [1]: 0.12 ± 0.03 (124.3) fold; Mean change (fold) in EC50 compared to wild type [6]: 0.06 ± 0.01 (55.5) fold; EC50 [2, 9]: 0.7 ± 0.2 nM; EC50 [2]: 1 nM; Mean change (fold) in EC50 compared to wild type [7]: 0.002 ± 0.0001 (1.7) fold

**Q.** What does the source list for CCCOn1cc(CC(=O)Nc2ccccc2Cl)c2ccccc21 [Compound 6d, N-(2-Chlorophenyl)-2-(1-propoxy-1H-indol-3-yl)acetamide]?
**A.** IC50 [3]: > 100000 nM; EC50 [1]: > 10000 nM; EC50 [2]: 490 nM

**Q.** With CCCOn1cc(C(=O)C(=O)Nc2ccncc2Cl)c2ccccc21 [Compound 14, N-(3-Chloropyridin-4-yl)-2-oxo-2-(1-propoxy-1H-indol-3-yl)acetamide] as the compound, how does the CC50 [8] read?
**A.** 20900 ± 5110 nM

**Q.** And the “infectivity when treated with the compound (percentage in parentheses)” value [2]?
**A.** >10; (131.6 ± 0.60%)

**Q.** What about the EC50 [2] of the same compound?
**A.** > 10000 nM

**Q.** With CCCOn1cc(C(O)C(=O)Nc2ccncc2Cl)c2ccccc21 (stereo not shown) [Compound 15, N-(3-Chloropyridin-4-yl)-2-hydroxy-2-(1-propoxy-1H-indol-3-yl)acetamide] as the compound, how does the CC50 [8] read?
**A.** 19000 ± 2310 nM

**Q.** And the EC50 [2]?
**A.** 2010 ± 60 nM

**Q.** CCCCOn1cc(CC(=O)Nc2ccncc2Cl)c2ccccc21 [Compound 10i, 2-(1-Butoxy-1H-indol-3-yl)-N-(3-chloropyridin-4-yl)acetamide] was tested. Which IC50 [3] did it give?
**A.** > 100000 nM

**Q.** What about the EC50 [2, 9] of the same compound?
**A.** 60 ± 0.5 nM
